Test results published in patent US20220133872A1, “A MONOPHOSPHORYL LIPID-A LIPOSOME BASED CANCER VACCINE” (University of Florida Research Foundation, Inc., priority 2019, published 2022).
“Also recorded” adds a separate entry of the source.

System: NKT cells
Experiment: NKT cells in blood, spleen and liver of vaccinated C57BL/6 mice (flow cytometry)
Type: in vivo
Conditions: vs untreated mice
Description: B16-F10 mouse melanoma cell line in C57/BL6 mice provides a syngeneic model of spontaneous highly metastatic tumor. As shown in the diagram of FIG. 13, three groups of mice were injected with B16 melanoma cell lines. Only one group received the GD3 based vaccine, the other groups were a control group and α-galactosylceramide (α-GalCer), a potent and specific activator of mouse and human iNKT cells. These C57BL/6 mice were vaccinated weekly for 4 weeks followed by a week of rest (see FIG. 13). Mice where then euthanized to collect, blood, liver, and spleen for evaluation of NKT cells. Liver lymphocytes were collected by making mono-cellular suspension of liver obtained after enzymatic digestion. Collected lymphocytes were stained for CD3, CD4, TCRβ, NK1.1, CD49b and dead cells. In these experiments untreated and α-galactosylceramide (α-GalCer) treated mice were used as controls. Tumor size and mass was only recorded.
One week post last vaccination, mice were euthanized as per IACUC protocol and Natural Killer T cells were evaluated in blood, spleen, and liver by staining the isolated cells with anti-CD45, CD3, CD4, TCRb, CD49b and NK1.1 antibodies. The stained cells were analyzed on BD Fortessa and FlowJo 10 v.

CCCCCCCCCCCCCCCCCCCCCCCCCC(=O)N[C@@H](CO[C@H]1O[C@H](CO)[C@H](O)[C@H](O)[C@H]1O)[C@H](O)[C@H](O)CCCCCCCCCCCCCC [α-GalCer, α-galactosylceramide]
NKT cells in the liver (liver, weekly x4, one week after last vaccination): increased; also recorded: accumulation | NKT cells in spleen and blood (spleen and blood): no discernable differences
